# Reference: patent US12617797B2, “Substituted pyrazolo [1,5-a]pyrimidines having multimodal activity against pain” (ESTEVE PHARMACEUTICALS, S.A., priority 2020, dated 2026)
# How the values were obtained:
# [1] = biological target: Human α2δ-1 subunit of Cav2.2 calcium channel (Homo sapiens, UniProt P54289); test: Human α2δ-1 subunit of Cav2.2 calcium channel assay ([3H]-gabapentin binding); settings: binding to the α2δ-1 subunit of voltage-gated calcium channels expressed as Ki; + also covers inhibition between 1% and 50%
# Chain of Human α2δ-1 subunit of Cav2.2 calcium channel (P54289 25-1103): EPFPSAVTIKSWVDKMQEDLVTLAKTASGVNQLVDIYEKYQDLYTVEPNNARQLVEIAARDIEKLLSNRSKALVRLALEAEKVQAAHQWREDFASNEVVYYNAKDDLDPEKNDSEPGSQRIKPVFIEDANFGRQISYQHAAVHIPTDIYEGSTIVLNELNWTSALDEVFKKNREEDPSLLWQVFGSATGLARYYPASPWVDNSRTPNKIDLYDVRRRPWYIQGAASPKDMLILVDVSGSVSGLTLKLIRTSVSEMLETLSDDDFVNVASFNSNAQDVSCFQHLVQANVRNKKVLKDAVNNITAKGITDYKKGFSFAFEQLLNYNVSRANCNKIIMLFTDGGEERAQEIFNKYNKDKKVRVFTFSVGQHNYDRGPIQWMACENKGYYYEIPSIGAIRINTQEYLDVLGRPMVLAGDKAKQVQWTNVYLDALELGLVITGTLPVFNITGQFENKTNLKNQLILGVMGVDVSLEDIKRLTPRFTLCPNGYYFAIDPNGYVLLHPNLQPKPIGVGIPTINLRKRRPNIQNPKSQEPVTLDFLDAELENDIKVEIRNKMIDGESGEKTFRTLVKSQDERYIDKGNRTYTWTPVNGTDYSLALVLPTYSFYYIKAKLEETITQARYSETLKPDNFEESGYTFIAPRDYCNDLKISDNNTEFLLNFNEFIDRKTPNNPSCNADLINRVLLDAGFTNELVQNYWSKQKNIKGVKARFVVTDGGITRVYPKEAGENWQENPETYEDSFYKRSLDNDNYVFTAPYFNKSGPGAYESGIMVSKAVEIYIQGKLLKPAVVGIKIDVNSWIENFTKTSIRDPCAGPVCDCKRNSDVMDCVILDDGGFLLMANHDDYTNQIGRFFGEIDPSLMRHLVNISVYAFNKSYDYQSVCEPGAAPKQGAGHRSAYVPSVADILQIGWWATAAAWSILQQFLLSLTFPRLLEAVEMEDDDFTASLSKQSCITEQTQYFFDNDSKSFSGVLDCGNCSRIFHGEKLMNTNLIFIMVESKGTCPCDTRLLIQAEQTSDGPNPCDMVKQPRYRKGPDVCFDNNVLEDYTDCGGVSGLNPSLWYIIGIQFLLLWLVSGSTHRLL
# Procedure, shortened: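 Membranes enriched in human α2δ-1 incubated with 15 nM [3H]-gabapentin in 10 mM Hepes-KOH pH 7.4, 60 min at 27 °C; nonspecific binding defined with 10 μM pregabalin. Filtration and scintillation counting; % inhibition at 1 or 10 μM, or Ki from five concentrations.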
# [2] = biological target: T1, Human σ1 receptor (Homo sapiens, UniProt Q99720); test: Human σ1 receptor radioligand assay ([3H](+)-pentazocine binding, transfected HEK-293 membranes); settings: binding to σ1 receptor expressed as Ki; + also covers inhibition between 1% and 50%; read-out: σ-1 binding
# T1 construct: expressed in transfected cells; host or cells: HEK-293
# T1 sequence (Q99720 whole entry): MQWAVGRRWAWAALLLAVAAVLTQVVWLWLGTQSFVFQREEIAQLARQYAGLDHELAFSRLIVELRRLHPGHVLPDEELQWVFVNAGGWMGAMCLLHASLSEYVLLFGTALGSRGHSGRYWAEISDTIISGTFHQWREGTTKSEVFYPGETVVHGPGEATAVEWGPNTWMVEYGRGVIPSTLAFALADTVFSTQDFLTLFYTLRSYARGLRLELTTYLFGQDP
# Procedure, shortened: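 Membranes (7 μg) were incubated with 5 nM [3H](+)-pentazocine in 50 mM Tris-HCl pH 8 for 120 min at 37° C. Non-specific binding was defined with 10 μM haloperidol. Values are % inhibition at 1 or 10 μM or Ki from five concentrations, read by filtration and scintillation counting.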
SMILES,Ki [1] [µM],Ki [2] [µM]
"Cc1nn2c([C@H]3CCCN(Cc4ccc(Cl)cc4)C3)ccnc2c1CN(C)CC1CC1 [Example 228, (S)-1-(7-(1-(4-chlorobenzyl)piperidin-3-yl)-2-methylpyrazolo[1,5-a]pyrimidin-3-yl)-N-(cyclopropylmethyl)-N-methylmethanamine]",< 0.5,< 0.5
"Cc1nn2c(C3CCCN(Cc4ccc(Cl)cc4)C3)ccnc2c1CN(C)Cc1c(F)cccc1F (stereo not shown) [Example 229, 1-(7-(1-(4-Chlorobenzyl)piperidin-3-yl)-2-methylpyrazolo[1,5-a]pyrimidin-3-yl)-N-(2,6-difluorobenzyl)-N-methylmethanamine]",0.5 to 5,0.5 to 1
"Cc1nn2c(C3CCCN(Cc4ccc(Cl)cc4)C3)ccnc2c1CN(C)Cc1ccc(CO)cc1 (stereo not shown) [Example 230, (4-((((7-(1-(4-Chlorobenzyl)piperidin-3-yl)-2-methylpyrazolo[1,5-a]pyrimidin-3-yl)methyl)(methyl)amino)methyl)phenyl)methanol]",0.5 to 5,< 0.5
"Cc1nn2c(C3CCCN(Cc4ccccc4)C3)ccnc2c1CN(CC1C[C@@H](C)O[C@@H](C)C1)C(C)C (stereo partly drawn) [Example 233, N-((7-(1-Benzylpiperidin-3-yl)-2-methylpyrazolo[1,5-a]pyrimidin-3-yl)methyl)-N-(((2R,6S)-2,6-dimethyltetrahydro-2H-pyran-4-yl)methyl)propan-2-amine]",> 5,0.5 to 1
"Cc1nn2c(C3CCCN(Cc4ccccc4)C3)ccnc2c1CN(C)CC1CC1 (stereo not shown) [Example 234, 1-(7-(1-Benzylpiperidin-3-yl)-2-methylpyrazolo[1,5-a]pyrimidin-3-yl)-N-(cyclopropylmethyl)-N-methylmethanamine]",0.5 to 5,< 0.5
"Cc1nn2c(C3CCCN(Cc4ccc(Cl)cc4)C3)ccnc2c1CCN(C)C (stereo not shown) [Example 236, 2-(7-(1-(4-Chlorobenzyl)piperidin-3-yl)-2-methylpyrazolo[1,5-a]pyrimidin-3-yl)-N,N-dimethylethan-1-amine]",0.5 to 5,< 0.5
"Cc1nn2c([C@H]3CCCN(Cc4ccc(F)cc4F)C3)ccnc2c1CNCC1CCOCC1 [Example 240, (S)-1-(7-(1-(2,4-Difluorobenzyl)piperidin-3-yl)-2-methylpyrazolo[1,5-a]pyrimidin-3-yl)-N-((tetrahydro-2H-pyran-4-yl)methyl)methanamine]",0.5 to 5,< 0.5
"Cc1nn2c([C@H]3CCCN(Cc4cc(F)cc(F)c4)C3)ccnc2c1CNCC1CCOCC1 [Example 241, (S)-1-(7-(1-(3,5-Difluorobenzyl)piperidin-3-yl)-2-methylpyrazolo[1,5-a]pyrimidin-3-yl)-N-((tetrahydro-2H-pyran-4-yl)methyl)methanamine]",> 5,< 0.5
"COc1ccc(CN2CCCC(c3ccnc4c(CNCC5CCOCC5)c(C)nn34)C2)cc1 (stereo not shown) [Example 242, 1-(7-(1-(4-Methoxybenzyl)piperidin-3-yl)-2-methylpyrazolo[1,5-a]pyrimidin-3-yl)-N-((tetrahydro-2H-pyran-4-yl)methyl)methanamine]",> 5,< 0.5
"Cc1nn2c([C@H]3CCCN(Cc4ccccc4)C3)ccnc2c1CNC[C@@H]1CCN(C)C(=O)C1 [Example 243, (R)-4-((((7-((S)-1-Benzylpiperidin-3-yl)-2-methylpyrazolo[1,5-a]pyrimidin-3-yl)methyl)amino)methyl)-1-methylpiperidin-2-one]",0.5 to 5,> 1
"Cc1nn2c([C@H]3CCCN(Cc4ccccc4)C3)ccnc2c1CNC[C@H]1CCN(C)C(=O)C1 [Example 244, (S)-4-((((7-((S)-1-Benzylpiperidin-3-yl)-2-methylpyrazolo[1,5-a]pyrimidin-3-yl)methyl)amino)methyl)-1-methylpiperidin-2-one]",0.5 to 5,> 1
"Cc1nn2c([C@H]3CCCN(Cc4ccccc4)C3)ccnc2c1CNC[C@H]1CCC(=O)NC1 [Example 245, (R)-5-((((7-((S)-1-Benzylpiperidin-3-yl)-2-methylpyrazolo[1,5-a]pyrimidin-3-yl)methyl)amino)methyl)piperidin-2-one]",0.5 to 5,> 1
"Cc1nn2c([C@H]3CCCN(Cc4ccccc4)C3)ccnc2c1CNC[C@@H]1CCC(=O)NC1 [Example 246, (S)-5-((((7-((S)-1-Benzylpiperidin-3-yl)-2-methylpyrazolo[1,5-a]pyrimidin-3-yl)methyl)amino)methyl)piperidin-2-one]",0.5 to 5,> 1
"Cc1nn2c(CC3CCCN(Cc4ccc(Cl)cc4)C3)ccnc2c1-c1ccncc1 (stereo not shown) [Example 249, 7-((1-(4-Chlorobenzyl)piperidin-3-yl)methyl)-2-methyl-3-(pyridin-4-yl)pyrazolo[1,5-a]pyrimidine]",> 5,< 0.5
Cc1nn2c(CC3CCCN(Cc4cccc(Cl)c4)C3)ccnc2c1-c1ccncc1 (stereo not shown) [Example 250],> 5,0.5 to 1
"Cc1nn2c(CC3CCCN(Cc4ccc(Cl)cc4)C3)ccnc2c1CN(C)C (stereo not shown) [Example 251, 1-(7-((1-(4-Chlorobenzyl)piperidin-3-yl)methyl)-2-methylpyrazolo[1,5-a]pyrimidin-3-yl)-N,N-dimethylmethanamine]",> 5,< 0.5
"Cc1nn2c(C3CCCCN(Cc4ccc(Cl)cc4)C3)ccnc2c1CNCC1CCOCC1 (stereo not shown) [Example 253, 1-(7-(1-(4-Chlorobenzyl)azepan-3-yl)-2-methylpyrazolo[1,5-a]pyrimidin-3-yl)-N-((tetrahydro-2H-pyran-4-yl)methyl)methanamine]",> 5,< 0.5

# Other lines, results leading:
Ki [1] [µM],Ki [2] [µM],SMILES
0.5 to 5,< 0.5,"Cc1nn2c(C3CCCN(Cc4ccc(Cl)cc4)C3)ccnc2c1CN(C)CC1CCOCC1 (stereo not shown) [Example 231, 1-(7-(1-(4-Chlorobenzyl)piperidin-3-yl)-2-methylpyrazolo[1,5-a]pyrimidin-3-yl)-N-methyl-N-((tetrahydro-2H-pyran-4-yl)methyl)methanamine]"
> 5,< 0.5,"Cc1nn2c(C3CCCN(Cc4ccc(Cl)cc4)C3)ccnc2c1CN(CC1CCOCC1)C(C)C (stereo not shown) [Example 232, N-((7-(1-(4-Chlorobenzyl)piperidin-3-yl)-2-methylpyrazolo[1,5-a]pyrimidin-3-yl)methyl)-N-((tetrahydro-2H-pyran-4-yl)methyl)propan-2-amine]"
> 5,0.5 to 1,"Cc1nn2c(C3CCCN(Cc4ccc(Cl)cc4)C3)ccnc2c1CN(CC1CCOCC1)CC(F)(F)F (stereo not shown) [Example 235, N-((7-(1-(4-Chlorobenzyl)piperidin-3-yl)-2-methylpyrazolo[1,5-a]pyrimidin-3-yl)methyl)-2,2,2-trifluoro-N-((tetrahydro-2H-pyran-4-yl)methyl)ethan-1-amine]"
< 0.5,< 0.5,"Cc1cnc2c(CNCC3CCOCC3)c(C)nn2c1C1CCCN(Cc2ccc(Cl)cc2)C1 (stereo not shown) [Example 237, 1-(7-(1-(4-Chlorobenzyl)piperidin-3-yl)-2,6-dimethylpyrazolo[1,5-a]pyrimidin-3-yl)-N-((tetrahydro-2H-pyran-4-yl)methyl)methanamine]"
0.5 to 5,< 0.5,"Cc1cc(C2CCCN(Cc3ccc(Cl)cc3)C2)n2nc(C)c(CNCC3CCOCC3)c2n1 (stereo not shown) [Example 238, 1-(7-(1-(4-Chlorobenzyl)piperidin-3-yl)-2,5-dimethylpyrazolo[1,5-a]pyrimidin-3-yl)-N-((tetrahydro-2H-pyran-4-yl)methyl)methanamine]"
> 5,< 0.5,"Cc1nn2c([C@H]3CCCN(Cc4ccccc4F)C3)ccnc2c1CNCC1CCOCC1 [Example 239, (S)-1-(7-(1-(2-Fluorobenzyl)piperidin-3-yl)-2-methylpyrazolo[1,5-a]pyrimidin-3-yl)-N-((tetrahydro-2H-pyran-4-yl)methyl)methanamine]"
< 0.5,< 0.5,"CC(=O)N1CCC(CNCc2c(C)nn3c([C@H]4CCCN(Cc5ccc(F)c(F)c5)C4)ccnc23)CC1 [Example 247, (S)-1-(4-((((7-(1-(3,4-Difluorobenzyl)piperidin-3-yl)-2-methylpyrazolo[1,5-a]pyrimidin-3-yl)methyl)amino)methyl)piperidin-1-yl)ethan-1-one]"
0.5 to 5,0.5 to 1,"COc1nn2c(C3CCCN(Cc4ccccc4)C3)ccnc2c1CNCC1CCOCC1 (stereo not shown) [Example 248, 1-(7-(1-Benzylpiperidin-3-yl)-2-methoxypyrazolo[1,5-a]pyrimidin-3-yl)-N-((tetrahydro-2H-pyran-4-yl)methyl)methanamine]"
> 5,< 0.5,"Cc1nn2c(CC3CCCN(Cc4cccc(Cl)c4)C3)ccnc2c1CN(C)C (stereo not shown) [Example 252, 1-(7-((1-(3-Chlorobenzyl)piperidin-3-yl)methyl)-2-methylpyrazolo[1,5-a]pyrimidin-3-yl)-N,N-dimethylmethanamine]"
